Reference: patent US8865750B2, “Small molecule inhibitors of RGS proteins” (The Regents of The University of Michigan, priority 2011, dated 2014)
Like-named read-outs stand apart in the source and are kept apart here.

Columns and labels:
RGS8 = RGS8 (Homo sapiens (Human), UniProt P57771); experiment: FCPIA: Gαo binding to RGS8; details: for IC50: read-out: RGS8 IC50; for RGS8 Hill Slope: Table 3
Description: (§1) FCPIA Dose Response and Reversibility Experiments:

RGS4 [1] = experiment: FCPIA: Gαo binding to RGS4; details: for IC50: read-out: RGS4 IC50; for RGS4 Hill Slope: Table 3
Description: as §1

M3 muscarinic receptor = experiment: Carbachol-induced Ca2+ response, M3 cells without RGS4 dependence; format: cell-based; details: 10 μM (FIG. 20) or as stated
Experimental: (§2) Calcium Mobilization Experiments:
(§3) A stable cell line was developed based upon the HEK-293 Flp-In TREx cell line (Invitrogen, Carlsbad, Calif.) that stably express the muscarinic M3 receptor and have human RGS4 expression under doxycycline control. Cells were maintained in DMEM supplemented with 10% fetal bovine serum and Penicillin (100 units/ml)-Streptomycin (100 μg/ml) under 5% CO2 at 37° C. For experiments, cells were split into 96-well black, clear bottom, poly-D-lysine coated microtiter plates (Nunc, Cat. #152037) at a density of 20,000 cells/well in DMEM containing 10% fetal bovine serum and Penicillin (100 units/ml), Streptomycin (100 μg/ml). RGS4 expression was induced by supplementing the medium with 1 μg/mL doxycycline for 24-48 hours before experimentation. Cells were loaded with Fluo-4 No Wash dye in buffer for 30 minutes at 37° C. Compounds and/or carbachol were added to the wells and the fluorescence intensity was measured using a FlexStation (Molecular Devices, Sunnyvale, Calif.) plate reader. Data analysis was performed by calculating the area under the curve or maximal fluorescence intensity from a 120 second kinetic measurement.
as §3, with “Calcium signaling transients: A” for “A”, “units/ml)-Streptomycin” for “units/ml), Streptomycin”

papain = papain (Carica papaya (Papaya), UniProt P00784); experiment: biochemical; format: biochemical
Chain of papain (P00784 134-345): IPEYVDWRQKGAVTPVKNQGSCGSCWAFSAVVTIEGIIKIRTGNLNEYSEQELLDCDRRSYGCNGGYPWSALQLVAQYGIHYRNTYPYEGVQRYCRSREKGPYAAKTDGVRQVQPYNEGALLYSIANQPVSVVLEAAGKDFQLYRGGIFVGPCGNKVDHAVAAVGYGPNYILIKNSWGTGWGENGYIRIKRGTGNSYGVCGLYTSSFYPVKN
Description: Papain (Sigma-Aldrich, St. Louis, Mo.) activity was monitored by the increase in fluorescence caused by the liberation of fluorescein from autoquenched fluorescein-conjugated casein (AnaSpec, San Jose, Calif.).

HEK293 cells = experiment: Calcium mobilization induced by compound alone; format: cell-based; details: for Emax at 10 µM: Homo sapiens, HEK293, read-out: Calcium transient (% 50014);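 for Calcium transient (% 50014): percent of response to 10 µM reference CCG-50014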
Experimental: as §2, §3

RGS4 [2] = biological target: RGS4 (Homo sapiens (Human), UniProt P49798); experiment: FCPIA: Gαo binding to RGS4; details: for RGS4 Hill Slope: Table 3
Chain of RGS4 (Homo sapiens (Human), UniProt P49798) (P49798 whole entry, looked up): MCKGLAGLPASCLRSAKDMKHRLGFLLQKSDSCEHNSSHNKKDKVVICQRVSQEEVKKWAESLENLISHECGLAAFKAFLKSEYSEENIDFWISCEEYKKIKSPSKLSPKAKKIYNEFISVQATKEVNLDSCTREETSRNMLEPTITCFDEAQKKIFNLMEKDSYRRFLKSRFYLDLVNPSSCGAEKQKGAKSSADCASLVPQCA
Description: as §1

[3] = Heart rate and blood pressure in freely-moving rats; format: in vivo; details: 0.1 mg/kg intraperitoneal vs saline
Description: The muscarinic agonist carbachol can induce a transient bradycardic effect by activating M2 receptors in the SAN.

[4] = Table 3, duplex FCPIA, average of two experiments
[5] = Table 2, mean of two independent FCPIA experiments

Chain of RGS8 (P57771 other isoform, or with tags, fused parts or gaps): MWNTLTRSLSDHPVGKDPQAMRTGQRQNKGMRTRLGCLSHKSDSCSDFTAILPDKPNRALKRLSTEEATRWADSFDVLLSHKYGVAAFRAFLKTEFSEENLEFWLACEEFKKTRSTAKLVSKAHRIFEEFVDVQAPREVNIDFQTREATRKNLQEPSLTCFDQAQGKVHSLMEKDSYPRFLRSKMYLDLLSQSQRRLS

SMILES	IC50 (RGS8; Table 6, FCPIA) [µM]	Emax at 10 µM (HEK293 cells) [%]	RGS8 Hill Slope (RGS8)	IC50 (RGS8; [4]) [µM]	RGS4 Hill Slope (RGS4 [1])	further results
CCn1sc(=O)n(CCOC)c1=O [CCG-203920, 2-ethyl-4-(2-methoxyethyl)-1,2,4-thiadiazolidine-3,5-dione]	36.1					IC50 (RGS4 [1]; Table 6, FCPIA): 0.0543 µM; effect on carbachol-induced Ca2+ response (RGS-independent) (M3 muscarinic receptor): no effect
CCN1C(=O)C=CC1=O [N-ethyl maleimide, reference compound]						inhibition of papain by general cysteine alkylators (papain): no effect; effect on RGS8 (RGS8; FCPIA): no effect
Cc1cccc(-n2sc(=O)n(Cc3ccccc3)c2=O)c1 [CCG-203785, 2-(3-methylphenyl)-4-benzyl-1,2,4-thiadiazolidine-3,5-dione]		145	−0.73	21.3		Fold Selectivity (R8/R4) (RGS4 [2]): 561; Fold Selectivity (RGS8 IC50/ RGS4 IC50) (RGS4 [2]): 561; Selectivity RGS4/ RGS8 (RGS4 [2]): 558; RGS4 Hill Slope (RGS4 [2]): −1.13; IC50 (RGS4 [2]; [4]): 0.038 µM
O=C1C=C(Br)C(=O)N1Cc1ccccc1 [S37, 1-benzyl-3-bromo-1H-pyrrole-2,5-dione]	144					IC50 (RGS4 [2]; Table 6, FCPIA): 32.9 µM
O=C1C=C(Br)C(=O)N1Cc1ccccc1 [CCG-203780]						IC50 (RGS8; [5]): > 100 µM; IC50 (RGS4 [2]; [5]): 32 µM
O=c1sn(-c2ccc(Cl)cc2)c(=O)n1Cc1ccc(F)cc1 [CCG-203727, 2-(4-chlorophenyl)-4-(4-fluorobenzyl)-1,2,4-thiadiazolidine-3,5-dione]		158	−1.06	7.6		Fold Selectivity (R8/R4) (RGS4 [2]): 543; Fold Selectivity (RGS8 IC50/ RGS4 IC50) (RGS4 [2]): 543; Selectivity RGS4/ RGS8 (RGS4 [2]): 564; RGS4 Hill Slope (RGS4 [2]): −1.66; IC50 (RGS4 [2]; [4]): 0.014 µM
C[N+](C)(C)CCOC(N)=O [carbachol, reference compound]						heart rate after carbachol [3]: significant decrease in heart rate
CCCCn1sc(=O)n(CC(C)C)c1=O [CCG-203764, 2-butyl-4-isobutyl-1,2,4-thiadiazolidine-3,5-dione]	98	142	−0.44			Fold Selectivity (R8/R4) (RGS4 [2]): 2513; Fold Selectivity (RGS8 IC50/ RGS4 IC50) (RGS4 [2]): 2513; Selectivity RGS4/ RGS8 (RGS4 [2]): 2540; RGS4 Hill Slope (RGS4 [2]): −0.87; IC50 (RGS4 [2]; [4]): 0.039 µM
Cc1ccc(-n2sc(=O)n(Cc3ccccc3)c2=O)cc1 [CCG-203724, 2-p-tolyl-4-benzyl-1,2,4-thiadiazolidine-3,5-dione]	7.5	177	−0.94			Fold Selectivity (R8/R4) (RGS4 [2]): 536; Fold Selectivity (RGS8 IC50/ RGS4 IC50) (RGS4 [2]): 536; Selectivity RGS4/ RGS8 (RGS4 [2]): 519; RGS4 Hill Slope (RGS4 [2]): −3.63; IC50 (RGS4 [2]; [4]): 0.014 µM
NC(=O)CI [iodoacetamide, reference compound]						inhibition of papain by general cysteine alkylators (papain): dose-dependent; effect on Gα0 binding to the RGS proteins tested (RGS4 [2]; FCPIA): no effect
COc1ccc(-n2sc(=O)n(Cc3ccc(Cl)cc3)c2=O)cc1 [S6, 2-(4-methoxyphenyl)-4-(4-chlorobenzyl)-1,2,4-thiadiazolidine-3,5-dione]	40.2	104	−0.91	40.2	−1.73	
CC(C)(C)c1ccc(-n2sc(=O)n(Cc3ccccc3)c2=O)cc1 [S3, 2-(4-t-butylphenyl)-4-benzyl-1,2,4-thiadiazolidine-3,5-dione]	17.4	123	−0.78	17.4	−1.79	
O=c1sn(-c2cccc(Cl)c2)c(=O)n1Cc1ccccc1 [CCG-203773, 2-(3-chlorophenyl)-4-benzyl-1,2,4-thiadiazolidine-3,5-dione]	10.9	199	−0.87		−1.25	IC50 (RGS4 [1]; [4]): 0.033 µM
CCn1sc(=O)n(CC(C)C)c1=O [CCG-203762, 2-ethyl-4-isobutyl-1,2,4-thiadiazolidine-3,5-dione]	70.6	38.3	−0.78		−0.87	induction of calcium transient by compound alone (HEK293 cells; 10 μM, HEK293 cells): no ability to induce calcium mobilization; IC50 (RGS4 [1]; [4]): 0.026 µM
COc1ccc(Cn2c(=O)sn(-c3ccc(Cl)c(Cl)c3)c2=O)cc1 [S27, 2-(3,4-dichlorophenyl)-4-(4-methoxybenzyl)-1,2,4-thiadiazolidine-3,5-dione]	36	63.4	−1.50	36	−1.04	
Cc1cccc(-n2sc(=O)n(Cc3ccc(F)cc3)c2=O)c1 [CCG-203788, 2-(3-methylphenyl)-4-(4-fluorobenzyl)-1,2,4-thiadiazolidine-3,5-dione]		134	−1.09	7.1	−1.91	IC50 (RGS4 [1]; [4]): 0.121 µM
Cc1ccc(-n2sc(=O)n(Cc3ccc(Cl)c(Cl)c3)c2=O)cc1 [CCG-203743, 2-p-tolyl-4-(3,4-dichlorobenzyl)-1,2,4-thiadiazolidine-3,5-dione]		45.6	−0.65	15.7	−1.43	IC50 (RGS4 [1]; [4]): 0.034 µM
Cc1ccc(Cn2sc(=O)n(Cc3ccc(Cl)c(Cl)c3)c2=O)cc1 [S33, 2-(4-methylbenzyl)-4-(3,4-dichlorobenzyl)-1,2,4-thiadiazolidine-3,5-dione]	109	51.7	−0.71	109	−1.33	
